# Test results taken from ChEMBL document CHEMBL5442175, “EUbOPEN Chemogenomics Library - PDSP Secondary Binding” (2024).
# Counter-ions that a name gives are not always drawn.
# Assays:
# [1] = molecular target: 5-hydroxytryptamine receptor 1B (Homo sapiens, UniProt P28222); experiment: (§1) PDSP Secondary Binding target: HTR1B - Compounds are tested at 10 uM concentration, plate are incubated at room temperature in the dark for 90 minutes. Reaction are stopped by vacuum filtration onto 0.3% polyethyleneimine soaked filter mats using Filtermate harvester. Scintillation cocktail is then melted onto microwave-dried filters on a hot plate and the radio activity is counted in Microbia counter.
# Sequence of 5-hydroxytryptamine receptor 1B (P28222 whole entry): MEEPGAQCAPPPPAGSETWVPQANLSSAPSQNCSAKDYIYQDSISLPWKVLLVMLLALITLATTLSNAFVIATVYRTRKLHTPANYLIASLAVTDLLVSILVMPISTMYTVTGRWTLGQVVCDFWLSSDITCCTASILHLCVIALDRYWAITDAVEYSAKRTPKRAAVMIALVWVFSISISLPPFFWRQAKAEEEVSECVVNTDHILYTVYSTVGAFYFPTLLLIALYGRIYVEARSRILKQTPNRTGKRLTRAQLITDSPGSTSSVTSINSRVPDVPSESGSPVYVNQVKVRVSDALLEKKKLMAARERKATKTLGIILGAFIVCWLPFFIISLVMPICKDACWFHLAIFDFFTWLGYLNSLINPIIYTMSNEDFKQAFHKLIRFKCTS
# [2] = molecular target: 5-hydroxytryptamine receptor 6 (Homo sapiens, UniProt P50406); experiment: as §1, with “HTR6” for “HTR1B”
# Sequence of 5-hydroxytryptamine receptor 6 (P50406 whole entry): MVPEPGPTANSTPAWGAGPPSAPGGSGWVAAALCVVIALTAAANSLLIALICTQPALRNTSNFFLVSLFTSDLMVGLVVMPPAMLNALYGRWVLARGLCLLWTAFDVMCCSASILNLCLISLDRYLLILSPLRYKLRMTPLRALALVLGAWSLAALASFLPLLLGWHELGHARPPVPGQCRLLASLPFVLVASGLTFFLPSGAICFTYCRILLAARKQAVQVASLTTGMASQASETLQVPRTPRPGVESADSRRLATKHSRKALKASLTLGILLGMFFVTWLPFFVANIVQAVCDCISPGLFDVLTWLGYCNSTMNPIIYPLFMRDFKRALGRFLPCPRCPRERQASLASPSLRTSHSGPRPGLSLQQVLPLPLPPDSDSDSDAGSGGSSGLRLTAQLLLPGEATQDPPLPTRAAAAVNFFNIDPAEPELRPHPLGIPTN
# [3] = molecular target: T1, Alpha-1B adrenergic receptor (Homo sapiens, UniProt P35368); experiment: as §1, with “ADRA1B” for “HTR1B”
# T1 sequence (P35368 whole entry): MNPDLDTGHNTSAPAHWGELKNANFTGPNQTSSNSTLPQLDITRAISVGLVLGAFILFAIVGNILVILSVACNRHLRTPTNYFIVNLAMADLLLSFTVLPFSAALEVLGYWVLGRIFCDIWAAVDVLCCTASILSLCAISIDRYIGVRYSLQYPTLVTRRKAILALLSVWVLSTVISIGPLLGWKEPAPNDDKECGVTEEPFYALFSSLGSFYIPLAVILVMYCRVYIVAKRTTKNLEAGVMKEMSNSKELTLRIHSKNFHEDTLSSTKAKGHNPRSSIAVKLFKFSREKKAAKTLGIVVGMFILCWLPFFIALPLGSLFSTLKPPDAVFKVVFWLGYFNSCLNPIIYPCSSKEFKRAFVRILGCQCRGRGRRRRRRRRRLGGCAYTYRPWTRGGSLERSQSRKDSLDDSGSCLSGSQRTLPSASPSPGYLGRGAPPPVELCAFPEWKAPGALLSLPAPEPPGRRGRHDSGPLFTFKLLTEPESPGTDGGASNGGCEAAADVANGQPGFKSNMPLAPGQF
# [4] = molecular target: 5-hydroxytryptamine receptor 1D (Homo sapiens, UniProt P28221); experiment: as §1, with “HTR1D” for “HTR1B”
# Sequence of 5-hydroxytryptamine receptor 1D (P28221 whole entry): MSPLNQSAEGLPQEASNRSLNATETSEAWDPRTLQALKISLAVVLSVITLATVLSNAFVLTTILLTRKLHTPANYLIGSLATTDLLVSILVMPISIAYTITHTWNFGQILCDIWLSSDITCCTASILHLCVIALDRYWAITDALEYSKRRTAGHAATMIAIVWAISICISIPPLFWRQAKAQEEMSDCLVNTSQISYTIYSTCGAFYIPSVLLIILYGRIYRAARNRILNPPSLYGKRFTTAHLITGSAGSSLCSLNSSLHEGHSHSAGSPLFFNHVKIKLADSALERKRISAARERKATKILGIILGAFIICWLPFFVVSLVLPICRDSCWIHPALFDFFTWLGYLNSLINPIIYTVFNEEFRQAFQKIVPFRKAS
# [5] = molecular target: T2, Alpha-1D adrenergic receptor (Homo sapiens, UniProt P25100); experiment: as §1, with “ADRA1D” for “HTR1B”
# T2 sequence (P25100 whole entry): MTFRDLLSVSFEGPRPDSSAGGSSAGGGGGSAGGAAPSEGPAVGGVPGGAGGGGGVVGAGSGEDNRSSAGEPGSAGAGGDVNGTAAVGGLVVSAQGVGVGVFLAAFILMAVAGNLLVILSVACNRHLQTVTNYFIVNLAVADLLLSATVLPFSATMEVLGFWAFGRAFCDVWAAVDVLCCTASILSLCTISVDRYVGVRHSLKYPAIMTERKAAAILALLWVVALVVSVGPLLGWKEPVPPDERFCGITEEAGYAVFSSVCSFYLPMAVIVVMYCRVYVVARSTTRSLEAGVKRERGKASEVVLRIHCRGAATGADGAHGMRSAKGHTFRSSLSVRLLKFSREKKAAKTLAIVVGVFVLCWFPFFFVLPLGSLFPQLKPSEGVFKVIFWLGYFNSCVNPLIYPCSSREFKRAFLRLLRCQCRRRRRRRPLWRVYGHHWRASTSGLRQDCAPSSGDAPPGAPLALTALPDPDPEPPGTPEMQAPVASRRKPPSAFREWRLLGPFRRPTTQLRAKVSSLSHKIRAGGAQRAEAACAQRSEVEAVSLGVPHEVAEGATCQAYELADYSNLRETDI
# D(3) dopamine receptor = D(3) dopamine receptor (Homo sapiens, UniProt P35462); experiment: as §1, with “DRD3” for “HTR1B”
# Sequence of D(3) dopamine receptor (P35462 whole entry): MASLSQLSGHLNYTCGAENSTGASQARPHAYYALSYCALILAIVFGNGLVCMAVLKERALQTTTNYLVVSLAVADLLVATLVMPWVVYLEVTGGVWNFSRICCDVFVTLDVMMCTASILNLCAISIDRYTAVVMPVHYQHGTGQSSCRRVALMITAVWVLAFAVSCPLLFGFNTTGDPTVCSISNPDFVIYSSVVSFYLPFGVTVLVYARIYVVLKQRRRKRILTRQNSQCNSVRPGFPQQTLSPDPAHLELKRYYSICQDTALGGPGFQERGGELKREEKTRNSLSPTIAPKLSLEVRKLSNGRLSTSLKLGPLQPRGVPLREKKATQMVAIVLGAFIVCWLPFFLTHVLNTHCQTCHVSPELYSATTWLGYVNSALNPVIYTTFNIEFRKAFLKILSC
# [6] = molecular target: T3, Alpha-1A adrenergic receptor (Homo sapiens, UniProt P35348); experiment: as §1, with “ADRA1A” for “HTR1B”
# T3 sequence (P35348 whole entry): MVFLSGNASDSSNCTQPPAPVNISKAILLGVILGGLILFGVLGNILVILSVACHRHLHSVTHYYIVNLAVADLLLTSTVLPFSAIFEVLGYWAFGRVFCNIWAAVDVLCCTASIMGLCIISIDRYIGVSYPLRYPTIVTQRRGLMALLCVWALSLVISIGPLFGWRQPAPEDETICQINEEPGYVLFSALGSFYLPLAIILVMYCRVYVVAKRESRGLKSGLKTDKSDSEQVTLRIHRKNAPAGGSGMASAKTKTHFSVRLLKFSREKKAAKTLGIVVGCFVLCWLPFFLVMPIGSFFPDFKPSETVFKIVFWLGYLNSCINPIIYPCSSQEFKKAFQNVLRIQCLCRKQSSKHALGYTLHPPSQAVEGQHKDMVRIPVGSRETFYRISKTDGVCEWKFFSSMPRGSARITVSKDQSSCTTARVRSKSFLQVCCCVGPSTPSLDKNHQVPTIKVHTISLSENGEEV
# [7] = molecular target: Sigma intracellular receptor 2 (Homo sapiens, UniProt Q5BJF2); experiment: as §1, with “TMEM97” for “HTR1B”
# Sequence of Sigma intracellular receptor 2 (Q5BJF2 whole entry): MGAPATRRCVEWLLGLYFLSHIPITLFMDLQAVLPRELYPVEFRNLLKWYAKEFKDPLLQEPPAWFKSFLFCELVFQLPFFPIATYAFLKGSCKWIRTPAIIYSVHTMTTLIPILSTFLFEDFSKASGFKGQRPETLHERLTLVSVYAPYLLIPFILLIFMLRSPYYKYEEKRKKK
# [8] = molecular target: Sigma non-opioid intracellular receptor 1 (Homo sapiens, UniProt Q99720); experiment: as §1, with “SIGMAR1” for “HTR1B”
# Sequence of Sigma non-opioid intracellular receptor 1 (Q99720 whole entry): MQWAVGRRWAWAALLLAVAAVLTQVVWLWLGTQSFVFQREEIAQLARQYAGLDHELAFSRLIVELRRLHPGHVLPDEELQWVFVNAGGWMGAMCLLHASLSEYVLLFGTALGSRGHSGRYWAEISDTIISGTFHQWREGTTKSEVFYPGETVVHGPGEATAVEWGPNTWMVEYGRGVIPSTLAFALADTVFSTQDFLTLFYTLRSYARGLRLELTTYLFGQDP
Ki [1] [nM],Ki [2] [nM],Ki [3] [nM],Ki [4] [nM],Ki [5] [nM],Ki (D(3) dopamine receptor) [nM],Ki [6] [nM],Ki [7] [nM],Ki [8] [nM],SMILES
42.6,308,57.9,24,76.4,10.4,29.3,63,,O=c1ccc2ccc(OCCCCN3CCN(c4cccc5sccc45)CC3)cc2[nH]1 [BREXPIPRAZOLE]
366,878,,,,425,,328,320,COC(=O)C1=C(C)NC(C)=C(C(=O)OCCCN2CCC(c3ccccc3)(c3ccccc3)CC2)[C@H]1c1cccc([N+](=O)[O-])c1 [NIGULDIPINE]
1240,960,2900,369,716,133,278,1090,14.2,N#Cc1ccc2[nH]cc(CCCCN3CCN(c4ccc5oc(C(N)=O)cc5c4)CC3)c2c1 [VILAZODONE HYDROCHLORIDE]
,378,2720,1620,1750,,1580,936,412,CN1CCN(c2ccc(Nc3c4ccccc4nc4ccccc34)cc2)CC1
1040,1330,2030,,1700,641,513,153,,S=C(NCCCc1c[nH]cn1)NCCCN(Cc1ccc(Cl)c(Cl)c1)c1ccc(Br)cn1
,144,1310,419,767,461,414,,1310,Cc1ccc2c(c1)c1c(n2CCc2ccc(C)nc2)CCN(C)C1 [LATREPIRDINE]
1.18,,,15,,,,694,3110,COc1ccc(NC(=O)c2ccc(-c3ccc(-c4noc(C)n4)cc3C)cc2)cc1OCCN(C)C
,,3540,2780,2080,,,700,2280,CCc1ccc(OCc2ccccc2C(=O)Nc2ccc3nc(C)cc(N)c3c2)cc1
373,,196,91.7,47.3,71.6,30.3,,,C[C@H](Cc1cc2c(c(C(N)=O)c1)N(CCCO)CC2)NCCOc1ccccc1OCC(F)(F)F [SILODOSIN]
,,,3560,6050,768,,185,12,COc1cc(-n2cnc3cc(-c4ccc(Cl)cc4)sc3c2=O)ccc1OCCN1CCCC1
281,287,598,,,35.5,172,339,426,Cc1nc2sccn2c(=O)c1CCN1CCC(=C(c2ccc(F)cc2)c2ccc(F)cc2)CC1 [RITANSERIN]
,5110,847,,,1020,195,1320,696,O=S1(=O)c2cccc3cccc(c23)N1CCCN1CCN(c2ccc(F)cc2)CC1 [FANANSERIN]
,566,2610,50.1,1640,426,1630,57.2,177,CCCCCNC(=N)N/N=C/c1c[nH]c2ccc(OC)cc12 [TEGASEROD MALEATE]
1660,,,69.5,,284,,,32.7,Clc1cccc(COc2cncc(N3CCNCC3)n2)c1
262,1110,572,122,445,380,137,222,,CCc1nn(CCCN2CCN(c3cccc(Cl)c3)CC2)c(=O)n1CCOc1ccccc1 [NEFAZODONE HYDROCHLORIDE]
1990,,,1040,963,1260,549,32.4,,OCc1cc(C(O)CNCCCCCCOCCCCc2ccccc2)ccc1O (centres undefined) [SALMETEROL]
4230,2090,3640,885,333,636,496,32,150,CN1CCCC(n2nc(Cc3ccc(Cl)cc3)c3ccccc3c2=O)CC1 (centres undefined) [AZELASTINE HYDROCHLORIDE]
129,1300,1970,76.8,323,,,488,,CN(C)C(=O)N[C@H]1CC[C@H](CCN2CCN(c3cccc(Cl)c3Cl)CC2)CC1 [CARIPRAZINE HYDROCHLORIDE]

SMILES,Ki [1] [nM],Ki [2] [nM],Ki [3] [nM],Ki [4] [nM],Ki [5] [nM],Ki (D(3) dopamine receptor) [nM],Ki [6] [nM],Ki [7] [nM],Ki [8] [nM]
CN1C[C@H](C(=O)N[C@]2(C)O[C@@]3(O)[C@@H]4CCCN4C(=O)[C@H](Cc4ccccc4)N3C2=O)C[C@@H]2c3cccc4[nH]cc(c34)C[C@H]21 [DIHYDROERGOTAMINE MESYLATE],108,225,119,,,34,32.9,2840,604
Cc1c(P(=S)(c2ccccc2)c2ccccc2)n2ccccc2[n+]1C/C=C/c1ccccc1,,,,,,,,701,816
Cc1nc(-c2ccc(-c3ccc(C(=O)N4CCc5cc6c(cc54)C4(CCN(C)CC4)CO6)cc3)c(C)c2)no1 [SB-224289],,,,,2110,,,502,4340
